Like-named read-outs stand apart in the source and are kept apart here. Numbered stars: 1 amine (or outer) side, 2 acyl side, 3 side chain; on linkers, the order of the positions; unused ones are H or OH. Bridge positions count the residues as written; N and C are the ends. Square brackets hold non-standard residues; d marks the D form. Peptide text beside a SMILES is read from it. * marks the point of attachment. X1 = CN1C[C@H](CSCCN(CCSC[C@@H]2C[C@@H]3c4cccc5[nH]cc(c45)C[C@H]3N(C)C2)[C@H](CCCCN[*:2])C(=O)[*:1])C[C@@H]2c3cccc4[nH]cc(c34)C[C@H]21; X2 = CN1C[C@H](CSCC(=O)*)C[C@@H]2c3cccc4[nH]cc(c34)C[C@H]21; dDab = NCC[C@@H](N)C(=O)O
Legend:
hDRD2 [1] = target: T1, hDRD2 (Homo sapiens, UniProt P14416); assay: biochemical; type: binding; parameters: expressed in transfected cells; host or cells: CHO-K1, pcDNA3.1/GS, zeocin-selected clonal line; membranes
hSSTR2 [2] = target: T2, hSSTR2 (Homo sapiens, UniProt P30874); assay: Somatostatin receptor radioligand binding assay (hSSTR2);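 note: radioligand displacement on membranes of CHO-K1 cells stably transfected with human SSTR2, specific binding taken as total minus binding left with 1000 nM SRIF-14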
T2 construct: host or cells: 'Cells expressing hSSTR2'

hDRD2 [3] = target: T1, hDRD2; assay: cell-based; parameters: host or cells: 'Cells expressing hDRD2'; settings: for Emax: read-out: hDRD2 %Emax ± SEM
Experimental: (§1) The ability of select compounds according to the present invention to activate hSSTR2 and hDRD2 was determined by the intracellular calcium mobilization assay using FLIPR Calcium 4 assay kit (Molecular Devices).
(§2) Cells expressing hSSTR2 or hDRD2 were plated in 384-well microplates in tissue culture media and incubated for 16-24 hours at 37°C in a humidified atmosphere with 5% CO2. Medium was replaced by loading buffer containing Hank's buffered saline, 20 mM HEPES, 2.5 mM probenecid and Calcium 4 dye, and the plates were incubated at 37°C for 60 minutes.

hSSTR2 [4] = target: T2, hSSTR2; assay: Intracellular calcium mobilization assay (FLIPR Calcium 4), hSSTR2; type: cell-based;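 note: agonist activity measured in cells expressing hSSTR2, seeded in 384-well plates, loaded with Calcium 4 dye, read-out as rise in intracellular calcium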
Experimental: as §1, §2

[5] = CHO-K1 cell membranes, […] [3H]-spiperone, 60 minutes at 25°C, read-out: hDRD2 Ki (nM) ± SEM

T1 sequence (P14416 whole entry): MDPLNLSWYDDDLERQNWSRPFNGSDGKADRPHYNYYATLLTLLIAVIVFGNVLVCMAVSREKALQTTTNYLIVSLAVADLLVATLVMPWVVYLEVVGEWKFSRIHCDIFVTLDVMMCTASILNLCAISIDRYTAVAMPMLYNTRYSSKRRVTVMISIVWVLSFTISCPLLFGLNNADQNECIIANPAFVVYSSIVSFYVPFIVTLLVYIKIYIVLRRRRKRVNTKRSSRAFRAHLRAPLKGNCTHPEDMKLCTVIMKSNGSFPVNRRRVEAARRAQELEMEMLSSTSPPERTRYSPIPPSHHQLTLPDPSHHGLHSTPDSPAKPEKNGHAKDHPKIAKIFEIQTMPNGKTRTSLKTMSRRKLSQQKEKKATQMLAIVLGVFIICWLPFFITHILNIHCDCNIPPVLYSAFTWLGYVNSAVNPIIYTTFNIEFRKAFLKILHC
T2 sequence (P30874 whole entry): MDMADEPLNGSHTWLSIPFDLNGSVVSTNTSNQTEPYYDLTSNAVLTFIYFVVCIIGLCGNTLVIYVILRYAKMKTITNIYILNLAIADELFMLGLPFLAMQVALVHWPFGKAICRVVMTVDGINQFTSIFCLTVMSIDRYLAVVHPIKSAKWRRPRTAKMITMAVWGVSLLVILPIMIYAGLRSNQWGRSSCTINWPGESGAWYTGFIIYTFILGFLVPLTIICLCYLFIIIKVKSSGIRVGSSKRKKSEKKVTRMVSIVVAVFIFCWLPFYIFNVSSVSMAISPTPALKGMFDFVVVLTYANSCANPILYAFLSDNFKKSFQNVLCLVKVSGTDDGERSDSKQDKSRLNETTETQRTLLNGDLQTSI

Compound | Ki (hDRD2 [1]) [nM] | Ki (hSSTR2 [2]) [nM] | Emax (hDRD2 [3]) [%] | EC50 (hSSTR2 [4]) [nM] | EC50 (hDRD2 [3]) [nM] | Ki (hDRD2 [1]; [5]) [nM] | Ki (hSSTR2 [2]; CHO-K1 cell membranes, 0.05 nM [125I-Tyr]-seglitide, 60 minutes at 25°C, read-out: hSSTR2 Ki (nM) ± SEM) [nM] | Emax (hSSTR2 [4]; read-out: hSSTR2 %Emax ± SEM) [%]
CC(=O)N(CCCNC(CN[C@@H]1CCCCNC(=O)[C@H](Cc2ccc(F)cc2)NC(=O)[C@H]([C@@H](C)O)NC(=O)[C@H](CCCCN)NC(=O)[C@@H](Cc2c[nH]c3ccccc23)NC(=O)[C@H](Cc2ccccc2)NC(=O)[C@H](Cc2ccccc2)NC(=O)[C@H](CCCNC(=N)N)NC1=O)Cc1ccc(O)cc1)C[C@@H]1C[C@@H]2c3cccc4[nH]cc(c34)C[C@H]2N(C)C1 (single isomer, unassigned) [Compound 28A, 3-[N-acetyl-N-(D-6-methyl-8β-ergolinylmethyl)]-aminopropionyl-psi(CH2NH)-Tyr-psi(CH2NH)-cyclo(DLys-Arg-Phe-Phe-DTrp-Lys-Thr-4FPhe)] | 14 ± 3.4 | 0.04 ± 0.02 | 79.7 ± 11.4 |  |  |  |  | 
C[C@@H](O)[C@@H]1NC(=O)[C@H](CCCCN)NC(=O)[C@@H](Cc2c[nH]c3ccccc23)NC(=O)[C@H](Cc2ccccc2)NC(=O)[C@H](Cc2ccccc2)NC(=O)[C@H](CCCNC(=N)N)NC(=O)[C@H](NCCCC[C@@H]2C[C@@H]3c4cccc5[nH]cc(c45)C[C@H]3N(C)C2)CCCCNC(=O)[C@H](Cc2ccc(F)cc2)NC1=O [Compound 2, (D-6-methyl-8β-ergolinyl)-butanoyl-psi(CH2NH)-cyclo(DLys-Arg-Phe-Phe-DTrp-Lys-Thr-4FPhe)] | 6.9 ± 0.4 | 0.79 ± 0.06 | 84 ± 7.6 | 21.1 ± 6.7 | 55.7 ± 12.4 |  |  | 
C[C@@H](O)[C@@H]1NC(=O)[C@H](CCCCN)NC(=O)[C@@H](Cc2c[nH]c3ccccc23)NC(=O)[C@H](Cc2ccccc2)NC(=O)[C@H](Cc2ccccc2)NC(=O)[C@H](CCCNC(=N)N)NC(=O)[C@H](NCCCCC[C@@H]2C[C@@H]3c4cccc5[nH]cc(c45)C[C@H]3N(C)C2)CCCCNC(=O)[C@H](Cc2ccc(F)cc2)NC1=O [Compound 3, (D-6-methyl-8β-ergolinyl)-pentanoyl-psi(CH2NH)-cyclo(DLys-Arg-Phe-Phe-DTrp-Lys-Thr-4FPhe)] | 45.2 ± 4.9 | 0.72 ± 0.17 | 84.1 ± 12.2 | 137 ± 63.8 | 212 ± 85.6 |  |  | 
C[C@@H](O)[C@@H]1NC(=O)[C@H](CCCCN)NC(=O)[C@@H](Cc2c[nH]c3ccccc23)NC(=O)[C@H](Cc2ccccc2)NC(=O)[C@H](Cc2ccccc2)NC(=O)[C@H](CCCNC(=N)N)NC(=O)[C@H](NCCSC[C@@H]2C[C@@H]3c4cccc5[nH]cc(c45)C[C@H]3N(C)C2)CCCCNC(=O)[C@H](Cc2ccc(F)c(F)c2)NC1=O [Compound 6A, Dop1-psi(CH2NH)-cyclo(DLys-Arg-Phe-Phe-DTrp-Lys-Thr-3,4FPhe)] | 16.9 ± 0.2 | 0.35 | 91.5 ± 3 | 15.7 ± 4.3 | 62.1 ± 16.4 |  |  | 
C[C@@H](O)[C@@H]1NC(=O)[C@H](CCCCN)NC(=O)[C@@H](Cc2c[nH]c3ccccc23)NC(=O)[C@H](Cc2ccccc2)NC(=O)[C@H](Cc2ccccc2)NC(=O)[C@H](CCCNC(=N)N)NC(=O)[C@H](NCCSC[C@@H]2C[C@@H]3c4cccc5[nH]cc(c45)C[C@H]3N(C)C2)CCCCNC(=O)[C@H](Cc2cc(F)cc(F)c2)NC1=O [Compound 6B, Dop1-psi(CH2NH)-cyclo(DLys-Arg-Phe-Phe-DTrp-Lys-Thr-3,5FPhe)] | 25.4 ± 7.9 | 0.25 ± 0.03 | 85.1 ± 9.6 | 17 ± 6.5 | 112 ± 27.8 |  |  | 
C[C@@H](O)[C@@H]1NC(=O)[C@H](CCCCN)NC(=O)[C@@H](Cc2c[nH]c3ccccc23)NC(=O)[C@H](Cc2ccccc2)NC(=O)[C@H](Cc2ccccc2)NC(=O)[C@H](CCCNC(=N)N)NC(=O)[C@H](NCCSC[C@@H]2C[C@@H]3c4cccc5[nH]cc(c45)C[C@H]3N(C)C2)CCCCNC(=O)[C@H](Cc2cccc(F)c2)NC1=O [Compound 6C, Dop1-psi(CH2NH)-cyclo(DLys-Arg-Phe-Phe-DTrp-Lys-Thr-3FPhe)] | 30.3 ± 3.7 | 0.15 ± 0.04 | 94.4 ± 5.1 | 16.2 ± 5.9 | 60 ± 21.7 |  |  | 
C[C@@H](O)[C@@H]1NC(=O)[C@H](CCCCN)NC(=O)[C@@H](Cc2c[nH]c3ccccc23)NC(=O)[C@H](Cc2ccccc2)NC(=O)[C@H](Cc2ccccc2)NC(=O)[C@H](CCCNC(=N)N)NC(=O)[C@H](NCCSC[C@@H]2C[C@@H]3c4cccc5[nH]cc(c45)C[C@H]3N(C)C2)CCCCNC(=O)[C@H](Cc2ccccc2F)NC1=O [Compound 6D, Dop1-psi(CH2NH)-cyclo(DLys-Arg-Phe-Phe-DTrp-Lys-Thr-2FPhe)] | 31.8 ± 11.8 | 0.54 ± 0.12 | 101 ± 2.7 | 25 ± 7.7 | 64.5 ± 20.5 |  |  | 
C[C@@H](O)[C@@H]1NC(=O)[C@H](CCCCN)NC(=O)[C@@H](Cc2c[nH]c3ccccc23)NC(=O)[C@H](Cc2ccccc2)NC(=O)[C@H](Cc2ccccc2)NC(=O)[C@H](CCCNC(=N)N)NC(=O)[C@H](NC[C@H](Cc2ccc(O)cc2)NC(=O)CSC[C@@H]2C[C@@H]3c4cccc5[nH]cc(c45)C[C@H]3N(C)C2)CCCNC(=O)[C@H](Cc2ccccc2)NC1=O [Compound 30, Dop1-Tyr-psi(CH2NH)-cyclo(DOrn-Arg-Phe-Phe-DTrp-Lys-Thr-Phe)] |  | 0.4 ± 0.06 |  | 13.1 ± 4.2 |  |  |  | 
C[C@@H](O)[C@@H]1NC(=O)[C@H](CCCCN)NC(=O)[C@@H](Cc2c[nH]c3ccccc23)NC(=O)[C@H](Cc2cccnc2)NC(=O)[C@H](Cc2ccccc2)NC(=O)[C@H](CCCNC(=N)N)NC(=O)[C@H](NC[C@H](Cc2ccc(O)cc2)NC(=O)CSC[C@@H]2C[C@@H]3c4cccc5[nH]cc(c45)C[C@H]3N(C)C2)CCCCNC(=O)[C@H](Cc2ccccc2)NC1=O [Compound 38, Dop1-Tyr-psi(CH2NH)-cyclo(DLys-Arg-Phe-3Pal-DTrp-Lys-Thr-Phe)] |  |  | 97.5 ± 0.3 |  |  | 179 ± 113 |  | 
C[C@@H](O)[C@@H]1NC(=O)[C@H](CCCCN)NC(=O)[C@@H](Cc2c[nH]c3ccccc23)NC(=O)[C@H](Cc2ccccc2)NC(=O)[C@H](Cc2ccccc2)NC(=O)[C@H](CCCNC(=N)N)NC(=O)[C@H](N(CCSC[C@@H]2C[C@@H]3c4cccc5[nH]cc(c45)C[C@H]3N(C)C2)CCSC[C@@H]2C[C@@H]3c4cccc5[nH]cc(c45)C[C@H]3N(C)C2)CCCCNC(=O)[C@H](Cc2ccccc2)NC1=O [Compound 40, bis[Dop1-psi(CH2N)]-cyclo(DLys-Arg-Phe-Phe-DTrp-Lys-Thr-Phe)] (RFF[dW]KTF; linker N-C via X1) |  | 3.17 ± 1.41 | 91.5 | 27 ± 6.5 | 123 ± 6.5 |  |  | 
C[C@@H](O)[C@@H]1NC(=O)[C@H](CCCCN)NC(=O)[C@@H](Cc2c[nH]c3ccccc23)NC(=O)[C@H](Cc2ccccc2)NC(=O)[C@H](Cc2ccccc2)NC(=O)[C@H](CCCNC(=N)N)NC(=O)[C@H](NC[C@@H](Cc2ccc(O)cc2)NC(=O)CSC[C@@H]2C[C@@H]3c4cccc5[nH]cc(c45)C[C@H]3N(C)C2)CCCCNC(=O)[C@H](Cc2ccccc2)NC1=O [Compound 41, Dop1-DTyr-psi(CH2NH)-cyclo(DLys-Arg-Phe-Phe-DTrp-Lys-Thr-Phe)] |  |  | 91.2 |  |  | 8.5 ± 3.6 | 0.37 | 
C[C@@H](O)[C@@H]1NC(=O)[C@H](CCCCN)NC(=O)[C@@H](Cc2c[nH]c3ccccc23)NC(=O)[C@H](Cc2ccccc2)NC(=O)[C@H](Cc2ccccc2)NC(=O)[C@H](CCCNC(=N)N)NC(=O)[C@H](NC(=O)[C@H](CCCCNC(=O)CSC[C@@H]2C[C@@H]3c4cccc5[nH]cc(c45)C[C@H]3N(C)C2)NC(=O)CSC[C@@H]2C[C@@H]3c4cccc5[nH]cc(c45)C[C@H]3N(C)C2)CCNC(=O)[C@H](Cc2ccccc2)NC1=O [Reference Compound C, Dopl-Lys(Dopl)-cyclo(DDab-Arg-Phe-Phe-DTrp-Lys-Thr-Phe), reference compound] (X2-K(X2)[dDab]RFF[dW]KTF; lactam 2-C (inferred)) |  |  | 101 ± 0.8 |  |  |  |  | 60.6 ± 3.2
